In patent US9498483B2, “2,3,5-trisubstituted thiophene compounds and uses thereof” (priority 2010, dated 2016):

Assays:
HCV polymerase = target: T1, HCV polymerase (Hepatitis C virus genotype 1b, UniProt Q9WMX2); experiment: Polymerase assay of Biological Example 1 (IC50 values of Table 3); format: biochemical; settings: IC50 values of Table 3, polymerase assay of Biological Example 1; read-out: NS5B-enzyme3
T1 construct: (His)6 (C); made in house; host or cells: XL-1 cells (E. coli, by own knowledge)

[1] = test system: HCV replicon I389luc-ubi-neo/NS3-3′/ET in ET (Huh-lucubineo-ET) cells; experiment: Replicon assay (Biological Example 2), luciferase readout; format: cell-based; settings: Hepatitis C virus
Method in brief: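 EC50 values come from Hill fits of % inhibition of replicon-driven firefly luciferase, relative to no-compound wells. Compounds were serially diluted (10 points, 3-fold, 0.1 nM–50 μM final, 0.5% DMSO) onto ET replicon cells and read after 48 h.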

[2] = ET cells, luciferase activity 48 hours after compound

Row | Compound | IC50 (HCV polymerase) | IC50 ([1]; between 100 nM and 5.0 uM) | IC50 [1, 2]
1 | O=C(O)c1sc(-c2ccccc2)cc1N1C(=O)CN(S(=O)(=O)c2ccc(C(F)(F)F)cc2)CC1C1CCCCC1 (stereo not shown) [Compound 54, 3-[2-Cyclohexyl-6-oxo-4-(4-trifluoromethyl-benzenesulfonyl)-piperazin-1-yl]-5-phenyl-thiophene-2-carboxylic acid] | 18 nM | 100 to 5000 nM | 
2 | O=C(O)c1sc(-c2ccccc2)cc1N1C(=O)CN(S(=O)(=O)c2ccc(-c3ccc(F)cc3F)nc2)C[C@H]1C1CCCCC1 [Compound 205, 3-{(R)-2-Cyclohexyl-4-[6-(2,4-difluoro-phenyl)-pyridine-3-sulfonyl]-6-oxo-piperazin-1-yl}-5-phenyl-thiophene-2-carboxylic acid] | 4 nM | 100 to 5000 nM | 
3 | CCN(CC)c1ccc(S(=O)(=O)N2CC(=O)N(c3cc(-c4ccccc4)sc3C(=O)O)C(C3CCCCC3)C2)cn1 (stereo not shown) [Compound 69, 3-[2-Cyclohexyl-4-(6-diethylamino-pyridine-3-sulfonyl)-6-oxo-piperazin-1-yl]-5-phenyl-thiophene-2-carboxylic acid] | 2 nM |  | ≤ 100 nM
4 | C[C@@H]1CCCN1c1ccc(S(=O)(=O)N2CC(=O)N(c3cc(-c4ccccc4)sc3C(=O)O)C(C3CCCCC3)C2)cc1 (stereo partly drawn) [Compound 127, 3-{2-Cyclohexyl-4-[4-((R)-2-methyl-pyrrolidin-1-yl)-benzenesulfonyl]-6-oxo-piperazin-1-yl}-5-phenyl-thiophene-2-carboxylic acid] | 3 nM |  | ≤ 100 nM
5 | C[C@@H]1COCCN1c1ccc(S(=O)(=O)N2CC(=O)N(c3cc(-c4ccccc4)sc3C(=O)O)[C@H](C3CCCCC3)C2)cn1 [Compound 225, 3-{(R)-2-Cyclohexyl-4-[6-((R)-3-methyl-morpholin-4-yl)-pyridine-3-sulfonyl]-6-oxo-piperazin-1-yl}-5-phenyl-thiophene-2-carboxylic acid] | 1 nM |  | ≤ 100 nM
6 | CC(C)CS(=O)(=O)N1CC(=O)N(c2cc(-c3ccccc3)sc2C(=O)O)C(C2CCCCC2)C1 (stereo not shown) [Compound 38, 3-[2-Cyclohexyl-4-(2-methyl-propane-1-sulfonyl)-6-oxo-piperazin-1-yl]-5-phenyl-thiophene-2-carboxylic acid] | 65 nM | 100 to 5000 nM | 
7 | O=C(O)c1sc(-c2ccccc2)cc1N1C(=O)CN(S(=O)(=O)c2ccc(-c3cccnc3)nc2)C[C@H]1C1CCCCC1 [Compound 214, 3-[(R)-4-([2,3′]Bipyridinyl-5-sulfonyl)-2-cyclohexyl-6-oxo-piperazin-1-yl]-5-phenyl-thiophene-2-carboxylic acid] | 1 nM | 100 to 5000 nM | 
8 | CC(C)(C)C#Cc1cc(N2C(=O)[C@](C)(CC(O)CO)OC[C@H]2C2CCCCC2)c(C(=O)O)s1 (stereo partly drawn) [Compound 327, 3-[(2S,5R)-5-Cyclohexyl-2-(2,3-dihydroxy-propyl)-2-methyl-3-oxo-morpholin-4-yl]-5-(3,3-dimethyl-but-1-ynyl)-thiophene-2-carboxylic acid] | 4 nM |  | ≤ 100 nM
9 | CC(C)(C)C#Cc1cc(N2C(=O)[C@](C)(CCC(C)(C)O)OC[C@H]2C2CCCCC2)c(C(=O)O)s1 [Compound 318, 3-[(2S,5R)-5-Cyclohexyl-2-(3-hydroxy-3-methyl-butyl)-2-methyl-3-oxo-morpholin-4-yl]-5-(3,3-dimethyl-but-1-ynyl)-thiophene-2-carboxylic acid] | 14 nM |  | ≤ 100 nM
10 | CC(C)(C)C#Cc1cc(N2C(=O)C(C)(C)OC[C@H]2C2CCCCC2)c(C(=O)O)s1 [Compound 290, 3-((R)-5-Cyclohexyl-2,2-dimethyl-3-oxomorpholin-4-yl)-5-(3,3-dimethyl-but-1-ynyl)-thiophene-2-carboxylic acid] | 2 nM |  | ≤ 100 nM
11 | CC(C)(C)C#Cc1cc(N2C(=O)[C@](C)(CC#N)OC[C@H]2C2CCCCC2)c(C(=O)O)s1 [Compound 312, 3-((2S,5R)-2-Cyanomethyl-5-cyclohexyl-2-methyl-3-oxo-morpholin-4-yl)-5-(3,3-dimethyl-but-1-ynyl)-thiophene-2-carboxylic acid] | 2 nM |  | ≤ 100 nM
12 | O=C(O)c1sc(-c2ccc(Cl)cc2)cc1N1C(=O)CN(S(=O)(=O)c2ccc(N3CCCOCC3)nc2)C[C@H]1C1CCCCC1 [Compound 200, 5-(4-Chloro-phenyl)-3-[(R)-2-cyclohexyl-4-(6-[1,4]oxazepan-4-yl-pyridine-3-sulfonyl)-6-oxo-piperazin-1-yl]-thiophene-2-carboxylic acid] | 1 nM |  | ≤ 100 nM
13 | CC(C)(C)C#Cc1cc(N2C(=O)CN(S(=O)(=O)c3ccc(C(F)(F)F)nc3)C[C@H]2C2CCCCC2)c(C(=O)O)s1 [Compound 230, 3-[(R)-2-Cyclohexyl-6-oxo-4-(6-trifluoromethyl-pyridine-3-sulfonyl)-piperazin-1-yl]-5-(3,3-dimethyl-but-1-ynyl)-thiophene-2-carboxylic acid] | 6 nM | 100 to 5000 nM | 
14 | COc1cc(F)c(S(=O)(=O)N2CC(=O)N(c3cc(C#CC(C)(C)C)sc3C(=O)O)[C@H](C3CCCCC3)C2)cc1OC [Compound 276, 3-[(R)-2-Cyclohexyl-4-(2-fluoro-4,5-dimethoxy-benzenesulfonyl)-6-oxo-piperazin-1-yl]-5-(3,3-dimethyl-but-1-ynyl)-thiophene-2-carboxylic acid] | 2 nM |  | ≤ 100 nM
15 | CC(C)(C)C#Cc1cc(N2C(=O)CN(S(=O)(=O)c3c(F)cccc3F)C[C@H]2C2CCCCC2)c(C(=O)O)s1 [Compound 251, 3-[(R)-2-Cyclohexyl-4-(2,6-difluoro-benzenesulfonyl)-6-oxo-piperazin-1-yl]-5-(3,3-dimethyl-but-1-ynyl)-thiophene-2-carboxylic acid] | 4 nM |  | ≤ 100 nM
16 | CCc1ccc(S(=O)(=O)N2CC(=O)N(c3cc(-c4ccc(C)cc4)sc3C(=O)O)[C@H](C3CCCCC3)C2)cn1 [Compound 304, 3-[(R)-2-Cyclohexyl-4-(6-ethyl-pyridine-3-sulfonyl)-6-oxo-piperazin-1-yl]-5-p-tolyl-thiophene-2-carboxylic acid] | 5 nM |  | ≤ 100 nM
17 | CC(C)S(=O)(=O)N1CC(=O)N(c2cc(C#CC(C)(C)C)sc2C(=O)O)[C@H](C2CCCCC2)C1 [Compound 221, 3-[(R)-2-Cyclohexyl-6-oxo-4-(propane-2-sulfonyl)-piperazin-1-yl]-5-(3,3-dimethyl-but-1-ynyl)-thiophene-2-carboxylic acid] | 19 nM | 100 to 5000 nM | 
18 | COc1ccc(S(=O)(=O)N2CC(=O)N(c3cc(C#CC(C)(C)C)sc3C(=O)O)[C@H](C3CCCCC3)C2)cc1F [Compound 246, 3-[(R)-2-Cyclohexyl-4-(3-fluoro-4-methoxy-benzenesulfonyl)-6-oxo-piperazin-1-yl]-5-(3,3-dimethyl-but-1-ynyl)-thiophene-2-carboxylic acid] | 4 nM |  | ≤ 100 nM
19 | O=C(O)c1sc(-c2ccccc2)cc1N1C(=O)CN(S(=O)(=O)c2ccc(N3CC[C@H](O)C3)nc2)CC1C1CCCCC1 (stereo partly drawn) [Compound 124, 3-{2-Cyclohexyl-4-[6-((S)-3-hydroxy-pyrrolidin-1-yl)-pyridine-3-sulfonyl]-6-oxo-piperazin-1-yl}-5-phenyl-thiophene-2-carboxylic acid] | 4 nM | 100 to 5000 nM | 
20 | CC(C)(C)C#Cc1cc(N2C(=O)CN(S(=O)(=O)c3ccc(C#N)cc3)C[C@H]2C2CCCCC2)c(C(=O)O)s1 [Compound 238, 3-[(R)-4-(4-Cyano-benzenesulfonyl)-2-cyclohexyl-6-oxo-piperazin-1-yl]-5-(3,3-dimethyl-but-1-ynyl)-thiophene-2-carboxylic acid] | 2 nM |  | ≤ 100 nM
21 | O=C(O)c1sc(-c2ccccc2)cc1N1C(=O)CN(S(=O)(=O)c2ccccc2)CC1C1CCCCC1 (stereo not shown) [Compound 52, 3-(4-Benzenesulfonyl-2-cyclohexyl-6-oxo-piperazin-1-yl)-5-phenyl-thiophene-2-carboxylic acid] | 15 nM | 100 to 5000 nM | 
22 | O=C(O)c1sc(-c2ccccc2)cc1N1C(=O)CN(S(=O)(=O)c2ccc(NC3CCOCC3)nc2)C[C@H]1C1CCCCC1 [Compound 194, 3-{(R)-2-Cyclohexyl-6-oxo-4-[6-(tetrahydro-pyran-4-ylamino)-pyridine-3-sulfonyl]-piperazin-1-yl}-5-phenyl-thiophene-2-carboxylic acid] | 2 nM |  | ≤ 100 nM
23 | Cc1nc(S(=O)(=O)N2CC(=O)N(c3cc(C#CC(C)(C)C)sc3C(=O)O)[C@H](C3CCCCC3)C2)cn1C [Compound 248, 3-[(R)-2-Cyclohexyl-4-(1,2-dimethyl-1H-imidazole-4-sulfonyl)-6-oxopiperazin-1-yl]-5-(3,3-dimethyl-but-1-ynyl)-thiophene-2-carboxylic acid] | 2 nM |  | ≤ 100 nM
24 | CC(C)c1ccc(S(=O)(=O)N2CC(=O)N(c3cc(-c4ccccc4)sc3C(=O)O)C(C3CCCCC3)C2)cc1 (stereo not shown) [Compound 100, 3-[2-Cyclohexyl-4-(4-isopropyl-benzenesulfonyl)-6-oxo-piperazin-1-yl]-5-phenyl-thiophene-2-carboxylic acid] | 4 nM | 100 to 5000 nM | 
25 | O=C(N[C@H]1CC(=O)N(c2cc(-c3ccccc3)sc2C(=O)O)[C@@H](C2CCCCC2)C1)c1ccccc1 [Compound 25, 3-((2R,4R)-4-Benzoylamino-2-cyclohexyl-6-oxo-piperidin-1-yl)-5-phenyl-thiophene-2-carboxylic acid] | 173 nM |  | ≥ 5000 nM
26 | Cn1ccc2cc(S(=O)(=O)N3CC(=O)N(c4cc(-c5ccccc5)sc4C(=O)O)C(C4CCCCC4)C3)ccc21 (stereo not shown) [Compound 61, 3-[2-Cyclohexyl-4-(1-methyl-1H-indole-5-sulfonyl)-6-oxo-piperazin-1-yl]-5-phenyl-thiophene-2-carboxylic acid] | 3 nM | 100 to 5000 nM | 
